Results taken from ChEMBL document CHEMBL5649168, “Discovery of a selective catalytic p300/CBP inhibitor that targets lineage-specific tumours” (Nature, 2017).
Active and inactive are the calls of the source. The rule behind the calls is not given here.

What was measured:
cells = conditions: Homo sapiens, MINO
HCC1599 = assay: Antiproliferative activity against human HCC1599 cells assessed as inhibition of cell viability incubated for 3 to 5 days by Celltiter-Glo luminescent assay; type: functional, cell-based
SK-MEL-2 = assay: Antiproliferative activity against human SK-MEL-2 cells assessed as inhibition of cell viability incubated for 3 to 5 days by Celltiter-Glo luminescent assay; type: functional, cell-based
KARPAS-299 = assay: Antiproliferative activity against human KARPAS-299 cells assessed as inhibition of cell viability incubated for 3 to 5 days by Celltiter-Glo luminescent assay; type: functional, cell-based
[1] = biological target: Mitogen-activated protein kinase 1 (Homo sapiens, UniProt P28482); assay: Inhibition of Erk2 (unknown origin)
DU-4475 = assay: Antiproliferative activity against human DU-4475 cells assessed as inhibition of cell viability incubated for 3 to 5 days by Celltiter-Glo luminescent assay; type: functional, cell-based
[2] = biological target: Leukocyte tyrosine kinase receptor (Homo sapiens, UniProt P29376); assay: Inhibition of LTK (unknown origin)
SK-MEL-1 = assay: Antiproliferative activity against human SK-MEL-1 cells assessed as inhibition of cell viability incubated for 3 to 5 days by Celltiter-Glo luminescent assay; type: functional, cell-based
NCI-H69 = assay: Antiproliferative activity against human NCI-H69 cells assessed as inhibition of cell viability incubated for 3 to 5 days by Celltiter-Glo luminescent assay; type: functional, cell-based
[3] = biological target: Mitogen-activated protein kinase kinase kinase kinase 2 (Homo sapiens, UniProt Q12851); assay: Inhibition of MAP4K2 (unknown origin)
[4] = biological target: Serine/threonine-protein kinase TBK1 (Homo sapiens, UniProt Q9UHD2); assay: Inhibition of TBK1 (unknown origin)
SU-DHL-5 = assay: Antiproliferative activity against human SuDHL5 cells assessed as inhibition of cell viability incubated for 3 to 5 days by Celltiter-Glo luminescent assay; type: functional, cell-based
NCI-H187 = assay: Antiproliferative activity against human NCI-H187 cells assessed as inhibition of cell viability incubated for 3 to 5 days by Celltiter-Glo luminescent assay; type: functional, cell-based
COR-L47 = assay: Antiproliferative activity against human COR-L47 cells assessed as inhibition of cell viability incubated for 3 to 5 days by Celltiter-Glo luminescent assay; type: functional, cell-based
[5] = biological target: Proto-oncogene tyrosine-protein kinase receptor Ret (Homo sapiens, UniProt P07949); assay: Inhibition of Ret (unknown origin)
[6] = biological target: Calcium/calmodulin-dependent protein kinase type II subunit alpha (Homo sapiens, UniProt Q9UQM7); assay: Inhibition of CAMK2A (unknown origin)
[7] = biological target: Epithelial discoidin domain-containing receptor 1 (Homo sapiens, UniProt Q08345); assay: Inhibition of DDR1 (unknown origin)
KARPAS-422 = assay: Antiproliferative activity against human KARPAS-422 cells assessed as inhibition of cell viability incubated for 3 to 5 days by Celltiter-Glo luminescent assay; type: functional, cell-based
LNCaP-Clone-FGC = assay: Antiproliferative activity against human LNCaP-Clone-FGC cells assessed as inhibition of cell viability incubated for 3 to 5 days by Celltiter-Glo luminescent assay; type: functional, cell-based
[8] = biological target: Fibroblast growth factor receptor 1 (Homo sapiens, UniProt P11362); assay: Inhibition of FGFR1 (unknown origin)
HCC1937 = assay: Antiproliferative activity against human HCC1937 cells assessed as inhibition of cell viability incubated for 3 to 5 days by Celltiter-Glo luminescent assay; type: functional, cell-based
EMT6 = assay: Antiproliferative activity against mouse EMT6 cells assessed as inhibition of cell viability incubated for 3 to 5 days by Celltiter-Glo luminescent assay; type: functional, cell-based
Focal adhesion kinase 1 = Focal adhesion kinase 1 (Homo sapiens, UniProt Q05397); assay: Inhibition of FAK (unknown origin)
Raji = assay: Antiproliferative activity against human Raji cells assessed as inhibition of cell viability incubated for 3 to 5 days by Celltiter-Glo luminescent assay; type: functional, cell-based
[9] = biological target: Dual specificity tyrosine-phosphorylation-regulated kinase 1A (Homo sapiens, UniProt Q13627); assay: Inhibition of Dyrk1A (unknown origin)
[10] = biological target: Proto-oncogene tyrosine-protein kinase Src (Homo sapiens, UniProt P12931); assay: Inhibition of Src (unknown origin)
CHL-1 = assay: Antiproliferative activity against human CHL-1 cells assessed as inhibition of cell viability incubated for 3 to 5 days by Celltiter-Glo luminescent assay; type: functional, cell-based
[11] = Inhibition of CDK9/Cyclin K (unknown origin); design: species or system Homo sapiens
[12] = biological target: Histone acetyltransferase p300 (Homo sapiens, UniProt Q09472)
Description: Binding affinity to p300-BHC (unknown origin) assessed as change in melting temperature in presence of Lys-CoA by sypro orange dye based thermal shift assay

DOHH-2 = assay: Antiproliferative activity against human DOHH-2 cells assessed as inhibition of cell viability incubated for 3 to 5 days by Celltiter-Glo luminescent assay; type: functional, cell-based
Aurora kinase A = Aurora kinase A (Homo sapiens, UniProt O14965); assay: Inhibition of Aurora2 (unknown origin)
LuCaP-77 CR cell = conditions: Homo sapiens, dose 100.0 mg/kg, time 7.0 day
HCC38 = assay: Antiproliferative activity against human HCC38 cells assessed as inhibition of cell viability incubated for 3 to 5 days by Celltiter-Glo luminescent assay; type: functional, cell-based
RCK8 = assay: Antiproliferative activity against human RCK8 cells assessed as inhibition of cell viability incubated for 3 to 5 days by Celltiter-Glo luminescent assay; type: functional, cell-based
[13] = biological target: Rho-associated protein kinase 1 (Homo sapiens, UniProt Q13464); assay: Inhibition of Rock1 (unknown origin)
[14] = biological target: Mitogen-activated protein kinase kinase kinase kinase 4 (Homo sapiens, UniProt O95819); assay: Inhibition of MAP4K4 (unknown origin)
SK-MEL-24 = assay: Antiproliferative activity against human SK-MEL-24 cells assessed as inhibition of cell viability incubated for 3 to 5 days by Celltiter-Glo luminescent assay; type: functional, cell-based
[15] = biological target: Serine/threonine-protein kinase PLK3 (Homo sapiens, UniProt Q9H4B4); assay: Inhibition of Plk3 (unknown origin)
[16] = Tmax in CB17 SCID mouse xenografted with LuCaP-77 CR cell at 100 mg/kg, ip administered for 7 days; type: ADME, organism-based; conditions: in vivo, time 7 day
[17] = Cmax in CB17 SCID mouse xenografted with LuCaP-77 CR cell at 50 mg/kg, ip administered for 7 days; type: ADME, organism-based; conditions: in vivo, time 7 day
MAO-B = MAO-B (Homo sapiens, UniProt P27338); assay: Inhibition of human recombinant MAO-B at 10 uM by radioligand binding assay relative to control
[18] = biological target: Mitogen-activated protein kinase 8 (Homo sapiens, UniProt P45983); assay: Inhibition of JNK1 (unknown origin)
Jurkat = assay: Antiproliferative activity against human Jurkat cells assessed as inhibition of cell viability incubated for 3 to 5 days by Celltiter-Glo luminescent assay; type: functional, cell-based
[19] = biological target: Tyrosine-protein kinase Lck (Homo sapiens, UniProt P06239); assay: Inhibition of Lck (unknown origin)
Sequence of Tyrosine-protein kinase Lck (P06239 whole entry): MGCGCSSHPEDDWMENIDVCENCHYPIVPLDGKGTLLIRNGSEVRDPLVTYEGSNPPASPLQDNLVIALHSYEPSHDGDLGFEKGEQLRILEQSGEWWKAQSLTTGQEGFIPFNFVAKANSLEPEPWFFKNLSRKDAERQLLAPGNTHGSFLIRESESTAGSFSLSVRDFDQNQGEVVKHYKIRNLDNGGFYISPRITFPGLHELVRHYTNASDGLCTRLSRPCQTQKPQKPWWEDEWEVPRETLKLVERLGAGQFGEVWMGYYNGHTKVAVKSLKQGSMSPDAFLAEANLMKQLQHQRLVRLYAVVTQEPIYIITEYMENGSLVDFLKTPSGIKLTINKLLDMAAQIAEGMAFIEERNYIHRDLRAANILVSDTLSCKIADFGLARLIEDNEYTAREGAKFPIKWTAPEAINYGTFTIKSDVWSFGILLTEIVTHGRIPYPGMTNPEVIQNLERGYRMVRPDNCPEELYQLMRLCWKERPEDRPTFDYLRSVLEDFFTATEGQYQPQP

Sequence of Serine/threonine-protein kinase PLK3 (Q9H4B4 whole entry): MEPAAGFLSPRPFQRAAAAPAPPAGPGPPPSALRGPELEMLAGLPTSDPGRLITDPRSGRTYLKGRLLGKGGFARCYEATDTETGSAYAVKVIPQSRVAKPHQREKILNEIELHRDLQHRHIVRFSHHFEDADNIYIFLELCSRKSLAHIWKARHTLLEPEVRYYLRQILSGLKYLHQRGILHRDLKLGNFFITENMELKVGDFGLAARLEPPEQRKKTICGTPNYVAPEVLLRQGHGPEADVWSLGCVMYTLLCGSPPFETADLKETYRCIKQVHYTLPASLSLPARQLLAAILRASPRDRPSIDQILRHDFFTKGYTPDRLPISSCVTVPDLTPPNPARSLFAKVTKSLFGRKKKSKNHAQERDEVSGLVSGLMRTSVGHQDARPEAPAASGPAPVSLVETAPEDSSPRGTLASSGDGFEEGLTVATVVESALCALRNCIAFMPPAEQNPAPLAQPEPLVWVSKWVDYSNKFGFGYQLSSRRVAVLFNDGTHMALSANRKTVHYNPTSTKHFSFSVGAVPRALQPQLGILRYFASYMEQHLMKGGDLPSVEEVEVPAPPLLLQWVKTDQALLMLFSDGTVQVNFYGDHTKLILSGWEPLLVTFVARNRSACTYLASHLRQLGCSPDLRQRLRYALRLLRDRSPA
Sequence of Proto-oncogene tyrosine-protein kinase Src (P12931 2-536 limits assumed): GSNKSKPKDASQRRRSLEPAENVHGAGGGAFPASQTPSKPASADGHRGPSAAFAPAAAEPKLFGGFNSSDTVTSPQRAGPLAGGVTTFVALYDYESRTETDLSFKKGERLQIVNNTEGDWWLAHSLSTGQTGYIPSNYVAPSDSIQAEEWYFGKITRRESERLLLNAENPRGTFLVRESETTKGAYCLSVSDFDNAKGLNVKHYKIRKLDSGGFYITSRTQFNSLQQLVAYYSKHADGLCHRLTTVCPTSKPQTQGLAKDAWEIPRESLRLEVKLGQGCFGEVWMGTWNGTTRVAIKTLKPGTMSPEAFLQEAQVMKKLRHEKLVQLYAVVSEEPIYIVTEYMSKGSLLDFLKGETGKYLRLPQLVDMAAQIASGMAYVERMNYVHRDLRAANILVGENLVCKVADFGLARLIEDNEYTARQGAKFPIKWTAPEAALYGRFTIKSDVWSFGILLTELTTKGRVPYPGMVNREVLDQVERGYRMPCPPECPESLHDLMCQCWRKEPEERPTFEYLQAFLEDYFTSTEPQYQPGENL
Sequence of Focal adhesion kinase 1 (Q05397 whole entry): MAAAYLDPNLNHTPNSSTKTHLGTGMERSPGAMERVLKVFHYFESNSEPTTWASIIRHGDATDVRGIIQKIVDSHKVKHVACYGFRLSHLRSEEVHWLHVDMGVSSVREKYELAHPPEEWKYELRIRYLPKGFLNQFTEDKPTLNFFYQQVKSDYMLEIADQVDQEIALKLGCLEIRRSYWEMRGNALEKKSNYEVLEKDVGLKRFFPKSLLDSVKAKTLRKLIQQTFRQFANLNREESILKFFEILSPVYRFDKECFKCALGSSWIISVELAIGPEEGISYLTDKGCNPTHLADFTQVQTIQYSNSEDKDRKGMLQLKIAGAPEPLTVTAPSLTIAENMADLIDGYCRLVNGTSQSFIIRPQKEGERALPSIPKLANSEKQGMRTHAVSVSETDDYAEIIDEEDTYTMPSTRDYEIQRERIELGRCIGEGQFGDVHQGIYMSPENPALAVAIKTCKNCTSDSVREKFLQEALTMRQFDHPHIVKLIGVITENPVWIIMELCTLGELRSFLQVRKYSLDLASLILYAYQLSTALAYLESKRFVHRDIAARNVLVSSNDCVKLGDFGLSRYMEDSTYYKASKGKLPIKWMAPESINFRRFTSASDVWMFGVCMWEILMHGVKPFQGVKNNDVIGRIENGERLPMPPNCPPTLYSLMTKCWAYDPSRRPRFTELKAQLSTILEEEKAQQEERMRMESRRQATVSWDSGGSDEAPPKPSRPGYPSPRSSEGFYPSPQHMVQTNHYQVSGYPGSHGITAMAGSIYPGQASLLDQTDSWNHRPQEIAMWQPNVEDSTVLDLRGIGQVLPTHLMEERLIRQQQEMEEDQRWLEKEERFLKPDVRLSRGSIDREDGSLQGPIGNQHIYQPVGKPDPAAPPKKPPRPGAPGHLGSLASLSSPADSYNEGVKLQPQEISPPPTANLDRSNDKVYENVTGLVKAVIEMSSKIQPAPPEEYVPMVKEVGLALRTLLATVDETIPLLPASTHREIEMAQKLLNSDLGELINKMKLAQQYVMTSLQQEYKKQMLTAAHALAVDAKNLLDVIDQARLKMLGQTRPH
Sequence of Proto-oncogene tyrosine-protein kinase receptor Ret (P07949 whole entry): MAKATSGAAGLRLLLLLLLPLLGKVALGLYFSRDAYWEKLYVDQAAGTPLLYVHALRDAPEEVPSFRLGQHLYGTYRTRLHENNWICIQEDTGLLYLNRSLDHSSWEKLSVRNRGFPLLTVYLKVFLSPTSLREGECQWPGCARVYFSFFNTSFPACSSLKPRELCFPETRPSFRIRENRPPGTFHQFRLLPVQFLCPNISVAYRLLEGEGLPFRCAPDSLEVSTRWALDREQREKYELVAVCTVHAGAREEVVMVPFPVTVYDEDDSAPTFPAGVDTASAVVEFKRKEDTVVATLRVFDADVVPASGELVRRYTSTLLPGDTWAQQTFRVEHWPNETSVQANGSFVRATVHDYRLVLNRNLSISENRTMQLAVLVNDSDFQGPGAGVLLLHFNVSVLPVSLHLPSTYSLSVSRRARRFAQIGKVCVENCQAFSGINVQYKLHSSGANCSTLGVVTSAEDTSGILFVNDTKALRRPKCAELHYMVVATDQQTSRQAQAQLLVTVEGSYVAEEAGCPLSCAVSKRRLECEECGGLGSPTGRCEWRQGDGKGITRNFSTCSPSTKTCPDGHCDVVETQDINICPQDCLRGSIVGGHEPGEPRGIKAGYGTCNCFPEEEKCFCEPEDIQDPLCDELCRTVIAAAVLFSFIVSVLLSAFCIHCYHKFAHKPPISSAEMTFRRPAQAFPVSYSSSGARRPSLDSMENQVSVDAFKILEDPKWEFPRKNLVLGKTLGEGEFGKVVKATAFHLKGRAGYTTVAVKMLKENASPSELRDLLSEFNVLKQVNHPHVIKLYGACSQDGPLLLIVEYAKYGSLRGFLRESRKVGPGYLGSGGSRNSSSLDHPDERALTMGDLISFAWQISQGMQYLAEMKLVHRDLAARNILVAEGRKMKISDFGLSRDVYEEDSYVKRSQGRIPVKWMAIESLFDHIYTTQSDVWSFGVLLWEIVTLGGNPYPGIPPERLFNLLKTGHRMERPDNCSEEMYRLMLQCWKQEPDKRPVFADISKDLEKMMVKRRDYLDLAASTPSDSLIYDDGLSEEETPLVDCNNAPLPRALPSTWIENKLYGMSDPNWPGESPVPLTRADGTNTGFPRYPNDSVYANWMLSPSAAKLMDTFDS
Sequence of Mitogen-activated protein kinase kinase kinase kinase 2 (Q12851 whole entry): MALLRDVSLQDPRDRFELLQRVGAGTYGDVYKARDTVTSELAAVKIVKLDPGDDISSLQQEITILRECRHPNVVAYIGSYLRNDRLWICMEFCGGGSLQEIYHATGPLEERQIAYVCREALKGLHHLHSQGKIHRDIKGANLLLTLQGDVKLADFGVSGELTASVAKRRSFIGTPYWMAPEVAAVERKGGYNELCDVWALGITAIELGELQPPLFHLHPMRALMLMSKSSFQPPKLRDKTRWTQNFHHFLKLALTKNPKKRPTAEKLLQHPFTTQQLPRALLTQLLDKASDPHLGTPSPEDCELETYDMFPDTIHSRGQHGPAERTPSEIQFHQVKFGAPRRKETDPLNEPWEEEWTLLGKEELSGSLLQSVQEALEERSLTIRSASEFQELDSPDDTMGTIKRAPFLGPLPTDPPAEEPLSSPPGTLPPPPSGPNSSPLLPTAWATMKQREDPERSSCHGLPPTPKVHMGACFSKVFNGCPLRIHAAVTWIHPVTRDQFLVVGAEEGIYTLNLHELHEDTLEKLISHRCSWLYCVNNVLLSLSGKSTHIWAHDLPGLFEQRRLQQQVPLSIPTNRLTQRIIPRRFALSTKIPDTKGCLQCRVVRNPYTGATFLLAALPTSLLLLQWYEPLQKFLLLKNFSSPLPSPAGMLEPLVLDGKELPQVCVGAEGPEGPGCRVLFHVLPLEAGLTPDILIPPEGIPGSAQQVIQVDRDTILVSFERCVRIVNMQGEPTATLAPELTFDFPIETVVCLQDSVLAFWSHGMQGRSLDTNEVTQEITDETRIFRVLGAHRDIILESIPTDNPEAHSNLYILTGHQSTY
Sequence of Mitogen-activated protein kinase 1 (P28482 whole entry): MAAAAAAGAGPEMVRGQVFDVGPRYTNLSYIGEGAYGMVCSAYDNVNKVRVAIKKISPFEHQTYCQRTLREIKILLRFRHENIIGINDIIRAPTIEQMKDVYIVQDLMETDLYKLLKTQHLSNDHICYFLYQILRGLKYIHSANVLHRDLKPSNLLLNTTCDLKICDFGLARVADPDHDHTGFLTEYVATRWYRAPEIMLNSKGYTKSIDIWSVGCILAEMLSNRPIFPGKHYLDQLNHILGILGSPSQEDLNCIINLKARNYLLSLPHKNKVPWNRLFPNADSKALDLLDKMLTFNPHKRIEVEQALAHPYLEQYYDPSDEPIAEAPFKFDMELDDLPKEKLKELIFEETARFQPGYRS

CNC(=O)Nc1ccc2c(c1)CC[C@@]21OC(=O)N(CC(=O)N(Cc2ccc(F)cc2)[C@@H](C)C(F)(F)F)C1=O [A-485]
EC50 (cells): 0.53 µM
EC50 (HCC1599): 4.85 µM
EC50 (SK-MEL-2): > 10 µM
EC50 (KARPAS-299): > 10 µM
IC50 [1]: > 10 µM
EC50 (DU-4475): 0.67 µM
IC50 [2]: > 10 µM
EC50 (SK-MEL-1): 0.57 µM
EC50 (NCI-H69): > 10 µM
IC50 [3]: > 10 µM
IC50 [4]: > 10 µM
EC50 (SU-DHL-5): 0.76 µM
EC50 (NCI-H187): > 10 µM
EC50 (COR-L47): > 10 µM
IC50 [5]: > 10 µM
IC50 [6]: > 10 µM
IC50 [7]: > 10 µM
EC50 (KARPAS-422): 0.25 µM
EC50 (LNCaP-Clone-FGC): 0.26 µM
IC50 [8]: > 10 µM
EC50 (HCC1937): > 10 µM
EC50 (EMT6): 0.5 µM
IC50 (Focal adhesion kinase 1): > 10 µM
EC50 (Raji): 0.46 µM
IC50 [9]: > 10 µM
IC50 [10]: > 10 µM
EC50 (CHL-1): 0.37 µM
IC50 [11]: > 10 µM
ΔTm [12]: 5.8 °C
EC50 (DOHH-2): 0.75 µM
IC50 (Aurora kinase A): > 10 µM
inhibition (LuCaP-77 CR cell): Active
EC50 (HCC38): > 10 µM
EC50 (RCK8): 0.59 µM
IC50 [13]: > 10 µM
IC50 [14]: > 10 µM
EC50 (SK-MEL-24): > 10 µM
IC50 [15]: 2.69 µM
Tmax [16]: 3 h
Cmax [17]: 14700 ng/mL
inhibition at 10 µM (MAO-B): -20%
IC50 [18]: > 10 µM
EC50 (Jurkat): 4.03 µM
IC50 [19]: > 10 µM
